According to ChEMBL document CHEMBL3779893, “Identification of novel GLUT inhibitors” (Bioorg Med Chem Lett, 2016):

Legend:
[1] = Intrinsic clearance in mouse liver microsomes; format: ADME; settings: read-out: CLH (converted)
[2] = Volume of distribution at steady state in Wistar rat at 0.3 mg/kg, iv and 5 mg/kg, po; format: ADME, organism-based; settings: in vivo, read-out: Vdss
[3] = Terminal half life in Wistar rat at 0.3 mg/kg, iv and 5 mg/kg, po; format: ADME, organism-based; settings: in vivo, read-out: beta t1/2 (converted)
[4] = Cmax in Wistar rat at 5 mg/kg, po; format: ADME, organism-based; set-up: dose 5 mg/kg, route oral; settings: in vivo
[5] = Oral bioavailability in Wistar rat at 5 mg/kg; format: ADME, organism-based; settings: in vivo
[6] = molecular target: T1, Solute carrier family 2, facilitated glucose transporter member 2 (Homo sapiens, UniProt P11168); experiment: Inhibition of human GLUT2 expressed in CHO cells assessed as ATP production co-incubated with 30 mM fructose for 16 hrs by CellTiter-Glo assay in presence of oxidative phosphorylation inhibitor rotenone; format: cell-based
T1 sequence (P11168 whole entry): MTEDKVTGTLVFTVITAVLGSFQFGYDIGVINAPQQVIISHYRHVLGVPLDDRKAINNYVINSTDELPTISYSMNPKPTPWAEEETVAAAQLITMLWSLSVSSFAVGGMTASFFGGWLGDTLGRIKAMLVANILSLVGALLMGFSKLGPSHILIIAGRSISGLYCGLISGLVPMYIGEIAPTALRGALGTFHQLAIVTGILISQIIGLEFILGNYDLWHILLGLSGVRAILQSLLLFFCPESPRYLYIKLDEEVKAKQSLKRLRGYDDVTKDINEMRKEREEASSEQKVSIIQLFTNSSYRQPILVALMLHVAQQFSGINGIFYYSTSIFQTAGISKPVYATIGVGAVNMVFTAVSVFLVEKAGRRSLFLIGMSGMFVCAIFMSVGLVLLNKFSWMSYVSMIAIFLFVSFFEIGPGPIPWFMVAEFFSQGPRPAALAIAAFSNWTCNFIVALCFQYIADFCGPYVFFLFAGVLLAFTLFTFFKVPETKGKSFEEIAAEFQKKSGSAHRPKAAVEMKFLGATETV

[7] = Apparent permeability from apical to basolateral side in human Caco2 cells at 2 uM after 2 hrs; format: ADME, cell-based; settings: Caco-2
[8] = molecular target: T2, Solute carrier family 2, facilitated glucose transporter member 1 (Homo sapiens, UniProt P11166); experiment: Inhibition of human GLUT1 expressed in DLD1 cells assessed as ATP production co-incubated with 100 mM glucose for 16 hrs by CellTiter-Glo assay in presence of oxidative phosphorylation inhibitor rotenone; format: cell-based, DLD-1
T2 sequence (P11166 whole entry): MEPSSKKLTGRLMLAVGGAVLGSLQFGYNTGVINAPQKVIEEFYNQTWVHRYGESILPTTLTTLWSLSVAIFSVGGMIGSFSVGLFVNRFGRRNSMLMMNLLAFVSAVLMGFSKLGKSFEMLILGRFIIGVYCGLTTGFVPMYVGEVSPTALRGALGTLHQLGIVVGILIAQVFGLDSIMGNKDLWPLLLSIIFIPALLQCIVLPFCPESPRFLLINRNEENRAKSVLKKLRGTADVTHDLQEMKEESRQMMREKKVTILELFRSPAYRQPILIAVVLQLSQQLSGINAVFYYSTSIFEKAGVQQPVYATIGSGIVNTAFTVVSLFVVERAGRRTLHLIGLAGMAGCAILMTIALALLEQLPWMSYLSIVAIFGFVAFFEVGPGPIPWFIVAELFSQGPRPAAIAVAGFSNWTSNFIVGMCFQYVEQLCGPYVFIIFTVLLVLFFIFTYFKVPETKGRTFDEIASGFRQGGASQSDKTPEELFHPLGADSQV

[9] = Efflux ratio of apparent permeability from basolateral to apical side over apical to basolateral side in human Caco2 cells; format: ADME, cell-based; settings: Caco-2
[10] = Intrinsic clearance in rat hepatocytes; format: ADME, cell-based, Hepatocyte; settings: read-out: CLH (converted)
[11] = molecular target: T3, Solute carrier family 2, facilitated glucose transporter member 3 (Homo sapiens, UniProt P11169); experiment: Inhibition of human GLUT3 expressed in GLUT1 knock-out DLD1 cells assessed as ATP production co-incubated with 300 mM glucose for 16 hrs by CellTiter-Glo assay in presence of oxidative phosphorylation inhibitor rotenone; format: cell-based, DLD-1
T3 sequence (P11169 whole entry): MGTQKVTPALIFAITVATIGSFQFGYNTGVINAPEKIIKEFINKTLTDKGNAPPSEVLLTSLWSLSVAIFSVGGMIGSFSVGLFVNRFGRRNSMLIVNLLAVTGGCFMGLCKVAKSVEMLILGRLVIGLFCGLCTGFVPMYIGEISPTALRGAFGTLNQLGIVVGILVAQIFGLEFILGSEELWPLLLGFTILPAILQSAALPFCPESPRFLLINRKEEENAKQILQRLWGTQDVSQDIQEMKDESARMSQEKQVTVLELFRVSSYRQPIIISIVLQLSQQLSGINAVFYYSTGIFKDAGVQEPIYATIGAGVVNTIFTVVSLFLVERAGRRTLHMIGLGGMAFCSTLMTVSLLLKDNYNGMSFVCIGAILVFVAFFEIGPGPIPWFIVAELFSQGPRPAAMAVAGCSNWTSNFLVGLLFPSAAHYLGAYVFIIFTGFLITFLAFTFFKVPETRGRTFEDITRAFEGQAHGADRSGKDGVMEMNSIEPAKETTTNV

[12] = Blood clearance in Wistar rat at 0.3 mg/kg, iv and 5 mg/kg, po; format: ADME, organism-based; settings: whole blood
[13] = Intrinsic clearance in human liver microsomes; format: ADME; settings: read-out: CLH (converted)
[14] = Intrinsic clearance in human hepatocytes; format: ADME, cell-based, Hepatocyte; settings: read-out: CLH (converted)
[15] = Intrinsic clearance in rat liver microsomes; format: ADME; settings: read-out: CLH (converted)

**Q.** With `COc1ccccc1N1CCN(c2ncnc3c2cnn3-c2ccccc2F)CC1` as the compound, how does the CLint scaled [1] read?
**A.** Its CLint scaled is 28.3 mL/min/kg.

**Q.** What about the Vd [2] of the same compound?
**A.** Its Vd is 1.9 L/kg.

**Q.** And the half-life [3]?
**A.** The half-life was 2.7 h.

**Q.** What about the Cmax [4] of the same compound?
**A.** Its Cmax is 1700 nM.

**Q.** What about the bioavailability [5] of the same compound?
**A.** Its bioavailability is 67%.

**Q.** What about the IC50 [6] of the same compound?
**A.** The IC50 was 1.1 µM.

**Q.** And the Papp A→B at 2 h, 2 µM [7]?
**A.** The Papp A→B at 2 h, 2 µM was 17.5 ×10⁻⁶ cm/s.

**Q.** What about the IC50 [8] of the same compound?
**A.** Its IC50 is 0.007 µM.

**Q.** What about the efflux ratio [9] of the same compound?
**A.** Its efflux ratio is 0.42.

**Q.** And the CLint scaled [10]?
**A.** Its CLint scaled is 36.7 mL/min/kg.

**Q.** What about the IC50 [11] of the same compound?
**A.** The IC50 was 0.04 µM.

**Q.** And the clearance [12]?
**A.** The clearance was 20 mL/min/kg.

**Q.** What about the CLint scaled [13] of the same compound?
**A.** The CLint scaled was 8.33 mL/min/kg.

**Q.** And the CLint scaled [14]?
**A.** The CLint scaled was 13.2 mL/min/kg.

**Q.** For `COc1ccccc1N1CCN(c2ncnc3c2cnn3-c2cccc(F)c2)CC1`, which CLint scaled [1] is on record?
**A.** The CLint scaled was 31.7 mL/min/kg.

**Q.** What about the IC50 [6] of the same compound?
**A.** The IC50 was > 10 µM.

**Q.** What about the IC50 [8] of the same compound?
**A.** Its IC50 is 0.035 µM.

**Q.** And the IC50 [11]?
**A.** The IC50 was 0.12 µM.

**Q.** What about the CLint scaled [13] of the same compound?
**A.** The CLint scaled was 9.17 mL/min/kg.

**Q.** Which results are given for `COc1ccccc1N1CCN(c2ncnc3c2cnn3-c2ccccc2)CC1`?
**A.** CLint scaled [1]: 38.3 mL/min/kg; IC50 [6]: > 10 µM; Papp A→B at 2 h, 2 µM [7]: 5.9 ×10⁻⁶ cm/s; IC50 [8]: 0.025 µM; CLint scaled [15]: 36.7 mL/min/kg; efflux ratio [9]: 0.29; CLint scaled [10]: 45 mL/min/kg; IC50 [11]: 0.25 µM; CLint scaled [13]: 2.33 mL/min/kg; CLint scaled [14]: 14 mL/min/kg

**Q.** For `COc1ccccc1N1CCN(c2ncnc3c2cnn3C2CCCC2)CC1`, which IC50 [6] is on record?
**A.** The IC50 was 2 µM.

**Q.** What about the Papp A→B at 2 h, 2 µM [7] of the same compound?
**A.** The Papp A→B at 2 h, 2 µM was 15.3 ×10⁻⁶ cm/s.

**Q.** And the IC50 [8]?
**A.** Its IC50 is 0.04 µM.

**Q.** What about the efflux ratio [9] of the same compound?
**A.** The efflux ratio was 0.33.

**Q.** And the CLint scaled [10]?
**A.** Its CLint scaled is 61.7 mL/min/kg.

**Q.** What about the IC50 [11] of the same compound?
**A.** Its IC50 is 0.12 µM.

**Q.** What about the CLint scaled [13] of the same compound?
**A.** Its CLint scaled is 13.8 mL/min/kg.
